Reference: EP1621546B1, “Peptide ligands specific to immonoglobulins” (Tecnogen S.p.A., priority 2004, dated 2008)

Experiments:
[1] = system: IgG, IgE, IgM and IgA immunoglobulins; test: Separation and purification of immunoglobulins from raw murine serum by affinity chromatography on the resin-immobilized compound; assay type: binding; conditions: compound immobilized on Ultralink Biosupport Medium
Procedure: (§1) Compound IB (5 mg) prepared according to the preceding Example 1 was dissolved in 5.0 ml of 0.2 M NaHCO3, 0.6 M Na citrate, pH 9.0, and incubated with 130 mg (1 mL) of resin Ultralink Biosupport Medium™ (PIERCE, Rockford, IL, USA), a support for affinity chromatography pre-activated with a function of the azalactone type for direct coupling of peptides and proteins. The suspension was stirred for 12 hours at room temperature and the extent of coupling was monitored by taking samples of the reaction mixture at various times and then analysing by RP-HPLC.
(§2) After 12 hours, approx. 90-95% of the initial peptide had been immobilized covalently on the resin. The derivatized resin was incubated with 0.1 M TRIS, pH 8.5 to block any sites of the resin that are still reactive, and then packed in a glass column 100 x 0.6 mm ID with variable plunger (OMNIFIT™, Cat. No. 006CC-06-10-FF).
To evaluate the capability of Compound I(B) immobilized on resin according to Example 2 to separate and purify immunoglobulins, the column was equilibrated with buffer 25 mM Bis-Tris (Bis(2-hydroxyethyl)amino-tris(hydroxymethyl)methane, Sigma-Aldrich™, Cat. No. B7535), pH 6.5, at a flow rate of 1 mL/min, monitoring the eluent at 280 nm. […]

[2] = system: immunoglobulins (IgG, IgE, IgM and IgA) present in human serum; test: Separation and purification of immunoglobulins from raw human serum by affinity chromatography on the resin-immobilized compound (gel electrophoresis and Western blotting of fractions); assay type: binding; conditions: compound immobilized on Ultralink Biosupport Medium
Procedure: as §1, §2
To evaluate the capability of Compound I(B) immobilized on resin according to Example 2 to separate and purify immunoglobulins, the column was equilibrated with buffer 25 mM Bis-Tris (Bis(2-hydroxyethyl)amino-tris(hydroxymethyl)methane, Sigma-Aldrich™, Cat. No. B7535), pH 6.5, at a flow rate of 1 mL/min, monitoring the eluent at 280 nm.
Raw human serum (Sigma-Aldrich™, Cat. No. R9133) was filtered, diluted 1:1 (v/v) with the binding buffer, loaded on the column and, after elution of the unbound material, the eluent was changed to acetic acid (AcH, Sigma-Aldrich™, Cat. No. 46928) 0.1 M, pH 3.0, for eluting the adsorbed material.
The material eluted from the column was neutralized with TRIS 1 M, pH 9.0 and characterized by analysis by polyacrylamide gel electrophoresis and Western blotting (WB) on nitrocellulose for identifying the immunoglobulins retained.

With “(NH2-L-Cys-L-Tyr-L-His-L-His)2-L-Lys-L-Gly-OH [Compound I(B)]” the “albumin (selectivity of the column)” value [1] was “recovered in the unretained material”, the “immunoglobulins retained by the column” value [1] was “able to retain the IgG, IgE, IgM and IgA immunoglobulins” and the “retention of the immunoglobulin fraction of the raw serum (electrophoretic analysis)” value ([2]; raw human serum diluted 1:1, binding buffer 25 mM Bis-Tris pH 6.5, elution with acetic acid 0.1 M pH 3.0) was “able to retain the immunoglobulin fraction of the raw serum”. For the same substance, the “classes of immunoglobulins retained (WB analysis of the retained material)” value ([2]; raw human serum, Western blotting on nitrocellulose) was “retained all the classes of immunoglobulins (IgG, IgE, IgM and IgA)” and the “albumin (selectivity of the column)” value ([2]; raw human serum, electrophoretic analysis) was “recovered in the unretained material”.
